Results as given in patent publication US9139546B2, “Tri-aryl/heteroaromatic cannabinoids and use thereof” (priority 2007, dated 2015).
Where two headings read alike, the source gives them in different places.

How the values were obtained:
[1] = test system: H69AR lung cancer cells; assay: Anti-cancer activity, WST-8 cell viability, H69AR; type: cell-based; conditions: Homo sapiens
Description: (§1) A representative group of compounds (shown below) was tested for anti-cancer activity against human lung (DMS-135 and H69AR), prostate (DU-145), colorectal (HCT-15), and pancreatic (BxPC-3) cancer cell lines using the methodology described below, providing results shown in Table 3.
(§2) Human cancer cells DU-145, DMS-135, H69AR, HCT-15, and BxPC-3 (American Type Culture Collection, ATCC) were cultured in supplemented media according to the recommendations of the supplier. Cells lines were plated in 96-well flat-bottom plates at 70% confluency in a 100 μl total volume of supplemented media as indicated, and incubated overnight at 37° C. to allow for adherence. The cultures were inoculated with escalating amounts of drug and cell death was analyzed at 18 hours, using the BioTek Synergy 2 Multidetection Microplate Reader. The percentage of viable cells present in the culture at each time point was calculated by comparing the absorbance value at 450 nm from the WST-8 assay (Pojindo Molecular Technologies) for each condition with untreated control cells.

[2] = molecular target: human CB2 receptor (Homo sapiens (Human), UniProt P34972); assay: Receptor binding assay, CB2 ([3H]CP 55,940 displacement); conditions: for CB1/CB2: ratio of Ki CB-1 to Ki CB-2; for Ki: as repeated in the anti-inflammatory table, read-out: CB-2 Ki
Description: (§3) The assays were carried out in 96 well plates obtained from Millipore, Inc. fitted with glass fiber filters (hydrophilic, GFC filters) having a pore size of 1.2μ. The filters were soaked with 0.05% polyethyleneimine solution and washed 5× with deionized water prior to carrying out the assays. The filtrations were carried out on a 96 well vacuum manifold (Millipore Inc.), the filters punched out with a pipette tip directly into scintillation vials at the end of the experiment and vials filled with 5 ml scintillation cocktail Ecolite (+) (Fisher Scientific). Counting was carried out on a Beckmann Scintillation Counter model LS6500. Drug solutions were prepared in DMSO and the radioligand was dissolved in ethanol.
(§4) 50 mM TRIS-HCl, 5 mM MgCl2, 2.5 mM EDTA, 0.5 mg/ml fatty acid free bovine serum albumin, pH 7.4.
(§5) The membranes were filtered and the filters washed 7× with 0.2 ml ice-cold incubation buffer and allowed to air dry under vacuum.
(§6) Final data are presented as Ki±S.E.M. of n≧3 experiments.

[3] = test system: DU-145 prostate cancer cells; assay: Anti-cancer activity, WST-8 cell viability, DU-145; type: cell-based; conditions: Homo sapiens
Description: as §1, §2

[4] = test system: DMS-135 lung cancer cells; assay: Anti-cancer activity, WST-8 cell viability, DMS-135; type: cell-based; conditions: Homo sapiens
Description: as §1, §2

[5] = test system: HCT-15 colorectal cancer cells; assay: Anti-cancer activity, WST-8 cell viability, HCT-15; type: cell-based; conditions: Homo sapiens
Description: as §1, §2

[6] = molecular target: human CB1 receptor (Homo sapiens (Human), UniProt P21554); assay: Receptor binding assay, CB1 ([3H]CP 55,940 displacement); conditions: as repeated in the anti-inflammatory table; read-out: CB-1 Ki
human CB1 receptor, sequence (P21554 whole entry): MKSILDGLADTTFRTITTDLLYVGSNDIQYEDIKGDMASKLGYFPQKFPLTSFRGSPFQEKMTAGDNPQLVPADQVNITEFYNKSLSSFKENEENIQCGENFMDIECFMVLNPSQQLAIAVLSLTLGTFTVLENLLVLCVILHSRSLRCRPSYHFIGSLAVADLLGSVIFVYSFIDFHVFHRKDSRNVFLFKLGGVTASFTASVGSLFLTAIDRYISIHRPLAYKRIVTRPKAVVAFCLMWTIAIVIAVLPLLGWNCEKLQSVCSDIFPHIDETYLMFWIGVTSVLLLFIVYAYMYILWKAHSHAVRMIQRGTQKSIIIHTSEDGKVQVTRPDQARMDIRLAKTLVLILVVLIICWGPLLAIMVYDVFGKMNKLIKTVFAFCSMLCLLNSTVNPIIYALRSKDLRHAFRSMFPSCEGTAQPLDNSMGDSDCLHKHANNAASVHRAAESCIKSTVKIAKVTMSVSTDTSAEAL
Description: as §3, §4, §5, §6

[7] = test system: NF-κB; assay: NF-κB SEAP reporter assay in TNF-α treated A549 cells; type: cell-based; conditions: Homo sapiens, read-out: NF-κB Reduction; for inhibition at 0.01 µM: 10 nM compound
Description: (§7) Human lung adenocarcinoma cell line A549 (alveolar type II epithelial-like) cells (ATCC, Manassas, Va.) were maintained in growth media consisting of DMEM supplemented with 10% heat-inactivated fetal calf serum, 2 mM L-glutamine, 100 U/ml penicillin, and 100 μg/ml streptomycin.
The plasmid pNF-κB-SEAP-NPT was kindly provided by Dr. Y. S. Kim of the Seoul National University. This plasmid contains a secreted alkaline phosphatase (SEAP) reporter gene coupled with the κB response element. Upon activation, NF-κB translocates to the nucleus and binds to the κB response element causing transcriptional activation. This activation drives production of the SEAP reporter, which is secreted into the cell culture supernatant where it can be measured. The neomycin phosphotransferase (NPT) region of the plasmid provides resistance to the antibiotic G-418.
A549 cells were stably transfected with pNF-κB-SEAP-NPT using GeneJammer Transfection Reagent (Stratagene, La Jolla, Calif.) per manufacturer's protocol. G-418 (500 μg/ml) was added 24 hrs after transfection to select for stable transfection of NF-κB. Resistant colonies were selected and maintained in growth media supplemented with 500 μg/ml G-418.
Previous experiments have shown A549 cells respond to the pro-inflammatory cytokine TNF-α by activation of the pro-inflammatory transcription factor, NF-κB. This effect is dose dependent with the maximum effect seen at 10 ng/mL TNF-α. Compounds with anti-inflammatory activity can be used to inhibit this activation of NF-κB.
One day prior to treatment, transfected cells were seeded in 24 well culture plates at 6×10^4 cells/well in 1 mL of DMEM containing 1% FCS. On the day of treatment, media was aspirated. Following PBS wash, 1 mL of media containing 1% FCS, 10 ng/mL TNF-α, and varying concentrations of test compounds was added. Cell culture supernatant was collected at 18 hours. SEAP production was measured in 50 μL of supernatant using the Great EscAPe™ chemiluminescence kit (Clontech, Mountain View, Calif.). Briefly, samples were incubated at 65° C. for 30 minutes to inactivate endogenous alkaline phosphate. Following a 5-minute equilibration with assay buffer, chemiluminescent substrate and enhancer was added. Chemiluminescence was measured after 10 minutes. Higher levels of chemiluminescence result from increased SEAP production and correspond to NF-κB activity. Compounds capable of inhibiting NF-κB activation due to TNF-α are determined by a reduction in chemiluminescence values when cells are treated with TNF-α and test compound versus cells treated with TNF-α alone.

[8] = test system: CXCL-8; assay: CXCL-8 level in supernatant of TNF-α treated A549 cells (multiplex bead immunoassay); type: cell-based, human; conditions: A549, 10 ng/mL TNF-α, 18 hours
Description: as §7
(§8) One day prior to treatment, A549 cells were seeded in 24 well culture plates at 6×10^4 cells/well in 1 mL of DMEM containing 1% FCS. On the day of treatment, media was aspirated. Following PBS wash, 1 mL of media containing 1% FCS, 10 ng/mL TNF-α, and varying concentrations of test compounds was added. Samples were collected at 18 hours and immediately transferred to −80° C. until the day of analysis.
(§9) Levels of IL-6 and CXCL-8 were measured in cell culture supernatant using the Multiplex Bead Immunoassay Kit (Biosource, Camarillo, Calif.) paired with the Luminex® 200™ System. Standard solutions were prepared by serial dilution in a 50% media, 50% buffer solution so that they were in the same matrix as the samples. Standards and samples were mixed with a solution containing beads coated with capture antibodies specific for IL-6 and CXCL-8. Each capture antibody is bound to a specific bead population with a known internal fluorescence. The Luminex system can differentiate between internal fluorescence of beads allowing detection of multiple analytes in the same well. Following overnight incubation to allow complexation of protein with capture antibodies, wells were washed and beads resuspended in assay buffer. Biotinylated reporter antibodies specific for IL-6 and CXCL-8 were added and incubated for 1.5 hours. Unbound antibodies were removed by washing, and Streptavidin-Phycoerythrin (PE) was added and incubated 30 minutes. Streptavidin binds to biotin on the reporter antibodies. Unbound reagents were removed and samples were analyzed by the Luminex system. This system utilizes a flow cytometry system and lasers capable of exciting the internal dyes of the beads and PE. The machine separates signals from beads with different internal fluorescence and measures fluorescence intensity from PE bound to these beads through protein-antibody interactions. This fluorescence intensity is reported as the median of 100 beads per cytokine in each well. Concentrations were interpolated by fitting fluorescence intensity from unknowns to the standard curves.
(§10) Cells treated with the pro-inflammatory cytokine TNF-α increase production of IL-6 and CXCL-8 when compared to cells not treated with TNF-α. Cells treated with anti-inflammatory compounds block the inflammatory effect of TNF-α and produce IL-6 and CXCL-8 levels similar to cells that are not treated with TNF-α.

[9] = test system: BxPC-3 pancreatic cancer cells; assay: Anti-cancer activity, WST-8 cell viability, BxPC-3; type: cell-based; conditions: Homo sapiens, BXPC-3; cell death at 18 hours, WST-8; n.a. = no activity; read-out: BxPC-3 pancreatic EC50
Description: as §1, §2

[10] = test system: IL-6; assay: IL-6 level in supernatant of TNF-α treated A549 cells (multiplex bead immunoassay); type: cell-based, human; conditions: A549, 10 ng/mL TNF-α, 18 hours
Description: as §7, §8, §9, §10

[11] = 18 h, read-out: H69AR lung EC50 (μM)
[12] = DU-145, 18 h, read-out: DU-145 prostate EC50 (μM)
[13] = 18 h, read-out: DMS-135 lung EC50 (μM)
[14] = HCT-15, cell death at 18 hours, WST-8, n.a. = no activity, read-out: HCT-15 colorectal EC50
[15] = DU-145, cell death at 18 hours, WST-8, n.a. = no activity, read-out: DU-145 prostate EC50
[16] = cell death at 18 hours, WST-8, n.a. = no activity, read-out: DMS-135 lung EC50

Structure (SMILES): CC(C)(c1ccccc1)c1cc(O)c(-c2cc(Cl)cc(Cl)c2)c(O)c1 [Compound 41, 3′,5′-dichloro-4-(2-phenylpropan-2-yl)biphenyl-2,6-diol]
- EC50 [1, 11]: 1.8 µM
- CB1/CB2 [2]: 87.5
- EC50 [3, 12]: 1.4 µM
- EC50 [4, 13]: 1.5 µM

Structure (SMILES): COc1cc(C(C)(C)c2ccccc2)cc(O)c1-c1cc(Cl)cc(Cl)c1 [Compound 47]
- EC50 ([5]; HCT-15, 18 h, read-out: HCT-15 colorectal EC50 (μM)): 4.2 µM
- EC50 [1, 11]: 12.2 µM
- EC50 [3, 12]: 1.4 µM
- EC50 [4, 13]: 0.9 µM

Structure (SMILES): O=C(c1ccccc1)c1cc(O)c(-c2cc(Cl)cc(Cl)c2)c(O)c1 [Compound 28, (3′,5′-dichloro-2,6-dihydroxybiphenyl-4-yl)(phenyl)methanone]
- Ki [6]: 27 nM
- inhibition at 1 µM ([7]; 1 μM compound, A549, 10 ng/mL TNF-α, 18 hours): 35%
- CXCL-8 Reduction ([8]; 1 μM compound): 5%
- EC50 [5, 14]: 0.8 µM
- EC50 ([1]; cell death at 18 hours, WST-8, n.a. = no activity, read-out: H69AR lung EC50): 2.4 µM
- Ki [2]: 2.94 nM
- CB1/CB2 [2]: 9.18
- EC50 [3, 15]: 5.4 µM
- EC50 [9]: 4000 nM
- IL-6 Reduction ([10]; 1 μM compound): 15%
- EC50 [4, 16]: 11.8 µM

Structure (SMILES): Cc1cccc(-c2ccc(C(=O)c3ccccc3)cc2O)c1 [Compound 25, (2-hydroxy-3′-methylbiphenyl-4-yl)(phenyl)methanone]
- Ki [6]: > 1000 nM
- inhibition at 0.01 µM ([7]; A549, 10 ng/mL TNF-α, 18 hours): 15%
- Ki [2]: 454 nM
- CB1/CB2 [2]: 2.21

Structure (SMILES): CC(C)(c1ccc(-c2cc(Cl)cc(Cl)c2)c(O)c1)c1cccs1 [Compound 45, 3′,5′-dichloro-4-(2-(thiophen-2-yl)propan-2-yl)biphenyl-2-ol]
- CB1/CB2 [2]: 0.46

Structure (SMILES): Cc1cccc(-c2ccc(C(C)(C)c3ccccc3)cc2O)c1 [Compound 39, 3′-methyl-4-(2-phenylpropan-2-yl)biphenyl-2-ol]
- CB1/CB2 [2]: 8.87

Structure (SMILES): O=C(c1cc(O)c(-c2cc(Cl)cc(Cl)c2)c(O)c1)c1cccs1 [Compound 31, (3′,5′-dichloro-2,6-dihydroxybiphenyl-4-yl)(thiophen-2-yl)methanone]
- Ki [6]: > 1000 nM
- inhibition at 0.01 µM ([7]; A549, 10 ng/mL TNF-α, 18 hours): 55%
- Ki [2]: 1.75 nM
- CB1/CB2 [2]: 571
- IL-6 Reduction ([10]; 10 nM compound): 35%

Structure (SMILES): COc1cc(C(=O)c2cccs2)cc(O)c1-c1cc(Cl)cc(Cl)c1 [Compound 30, (3′,5′-dichloro-2-hydroxy-6-methoxybiphenyl-4-yl)(thiophen-2-yl)methanone]
- Ki [6]: 503 nM
- inhibition at 1 µM ([7]; A549, 18 h): 40%
- Ki [2]: 2.32 nM
- CB1/CB2 [2]: 217
- IL-6 Reduction ([10]; 1 μM compound): 45%

Structure (SMILES): CC(C)(c1cc(O)c(-c2cc(Cl)cc(Cl)c2)c(O)c1)c1cccs1 [Compound 44, 3′,5′-dichloro-4-(2-(thiophen-2-yl)propan-2-yl)biphenyl-2,6-diol]
- CB1/CB2 [2]: 0.41

Structure (SMILES): CC(C)(c1ccccc1)c1ccc(-c2cc(Cl)cc(Cl)c2)c(O)c1 [Compound 42, 3′,5′-dichloro-4-(2-phenylpropan-2-yl)biphenyl-2-ol]
- CB1/CB2 [2]: 142.1

Structure (SMILES): Cc1cccc(-c2c(O)cc(C(C)(C)c3cccs3)cc2O)c1 [Compound 43, 3′-methyl-4-(2-(thiophen-2-yl)propan-2-yl)biphenyl-2,6-diol]
- CB1/CB2 [2]: 0.05

Structure (SMILES): COc1cc(C(O)c2cccs2)cc(OC)c1-c1cc(Cl)cc(Cl)c1 (stereo not drawn) [Compound 16, (3′,5′-dichloro-2,6-dimethoxybiphenyl-4-yl)(thiophen-2-yl)methanol]
- Ki [6]: > 1000 nM
- inhibition at 4 µM ([7]; 4 μM compound, A549, 10 ng/mL TNF-α, 18 hours): 45%
- CXCL-8 Reduction ([8]; 4 μM compound): 80%
- Ki [2]: 0.27 nM
- CB1/CB2 [2]: 3700
- IL-6 Reduction ([10]; 4 μM compound): 90%

Structure (SMILES): COc1cc(C(O)c2ccccc2)cc(OC)c1-c1cc(Cl)cc(Cl)c1 (stereo not drawn) [Compound 15]
- Ki [6]: > 1000 nM
- inhibition at 0.1 µM ([7]; 100 nM compound, A549, 10 ng/mL TNF-α, 18 hours): 30%
- EC50 [5, 14]: 348 µM
- Ki [2]: 1.66 nM
- CB1/CB2 [2]: 602
- EC50 [3, 15]: 18.4 µM
- EC50 [9]: 11600 nM
- IL-6 Reduction ([10]; 100 nM compound): 55%
- EC50 [4, 16]: 6.2 µM

Structure (SMILES): Cc1cccc(-c2c(O)cc(C(C)(C)c3ccccc3)cc2O)c1 [Compound 40, 3′-Methyl-4-(1-methyl-1-phenyl-ethyl)-biphenyl-2,6-diol]
- CB1/CB2 [2]: 20.30
